Results published in US9656963B2 (BRISTOL-MYERS SQUIBB COMPANY, priority 2012, dated 2017).

Target: T1, hGPR40 (Homo sapiens, UniProt O14842)
T1 construct: 3x FLAG; expressed in transfected cells
Experiment: FDSS-Based Intracellular Calcium Assay
Type: cell-based
Settings: cells expressing GPR40, intracellular Ca2+ response
Method: FDSS-Based Intracellular Calcium Assay
Cell lines expressing GPR40 are generated using the pDEST 3× flag gene expression system and are cultured in culture medium comprising the following components: F12 (Gibco #11765), 10% lipid deprived fetal bovine serum, 250 μg/ml zeocin and 500 μg/ml G418. To conduct the fluorescent imaging plate reader (FLIPR)-based calcium flux assay to measure intracellular Ca^2+ response, cells expressing GPR40 are plated on 384 well plates (BD Biocoat #356697) at a density of 20,000 cells/20 μL medium per well in phenol red and serum-free DMEM (Gibco #21063-029) and incubated overnight. […] Compounds are dissolved in DMSO and diluted to desired concentrations with assay buffer and added to the cells as 3x solution (20 μL per well). Run fluorescence/luminescence reader FDSS (Hamamatsu) to read intracellular Ca^2+ response.

T1 sequence (O14842 whole entry): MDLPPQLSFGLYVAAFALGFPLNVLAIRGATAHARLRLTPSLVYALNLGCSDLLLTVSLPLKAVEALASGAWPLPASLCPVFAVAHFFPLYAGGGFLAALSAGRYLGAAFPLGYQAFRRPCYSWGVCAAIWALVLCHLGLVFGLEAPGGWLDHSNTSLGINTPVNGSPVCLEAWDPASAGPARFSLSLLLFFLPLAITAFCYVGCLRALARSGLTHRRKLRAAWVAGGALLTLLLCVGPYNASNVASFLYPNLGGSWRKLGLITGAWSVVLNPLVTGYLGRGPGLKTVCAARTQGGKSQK

| Compound | EC50 |
| --- | --- |
| COc1ccc(F)c(-c2cnc(Oc3ccc(N4N=C(C(F)(F)F)[C@@H](C)[C@@H]4CC(=O)O)cc3)nc2)c1 [Example 65, 2-((4S,5S)-1-(4-(5-(2-fluoro-5-methoxyphenyl)pyrimidin-2-yloxy)phenyl)-4-methyl-3-(trifluoromethyl)-4,5-dihydro-1H-pyrazol-5-yl)acetic acid] | 1490 nM |
| Cc1cc(Cc2ccc(N3N=C(C(F)(F)F)CC3CC(=O)O)cc2)ccc1Br (racemic) [Example 18, 2-(1-(4-(4-bromo-3-methylbenzyl)phenyl)-3-(trifluoromethyl)-4,5-dihydro-1H-pyrazol-5-yl)acetic acid] | 455 nM |
| COc1ccc(F)c(-c2ccc(Cc3ccc(N4N=C(C(F)(F)F)C(C)(C)C4CC(=O)O)cc3)c(C)c2)c1 (single isomer, unassigned) [Example 50, Isomer 1, 2-(1-(4-((2′-fluoro-5′-methoxy-3-methylbiphenyl-4-yl)methyl)phenyl)-4,4-dimethyl-3-(trifluoromethyl)-4,5-dihydro-1H-pyrazol-5-yl)acetic acid] | 220 nM |
| COc1ccc(F)c(-c2cc(C)c(Oc3ccc(N4N=C(C(F)(F)F)CC4CC(=O)O)cc3)cc2F)c1 (racemic) [Example 12, 2-(1-(4-(2,2′-difluoro-5′-methoxy-5-methylbiphenyl-4-yloxy)phenyl)-3-(trifluoromethyl)-4,5-dihydro-1H-pyrazol-5-yl)acetic acid] | 510 nM |
| COc1ccc(F)c(-c2ccc(Oc3ccc(N4N=C(C(F)(F)F)CC4CC(=O)O)cc3)c(C)c2)c1 (single isomer, unassigned) [Example 14, Isomer 2, 2-(1-(4-(2′-fluoro-5′-methoxy-3-methylbiphenyl-4-yloxy)phenyl)-3-(trifluoromethyl)-4,5-dihydro-1H-pyrazol-5-yl)acetic acid] | 160 nM |
| COc1ccc(F)c(-c2ncc(Cc3ccc(N4N=C(c5ccccc5)[C@@H](C)[C@@H]4CC(=O)O)cc3)c(C)n2)c1 [Example 64, 2-((4S,5S)-1-(4-((2-(2-fluoro-5-methoxyphenyl)-4-methylpyrimidin-5-yl)methyl)phenyl)-4-methyl-3-phenyl-4,5-dihydro-1H-pyrazol-5-yl)acetic acid] | 270 nM |
| COc1ccc(F)c(-c2ccc(Cc3ccc(N4N=C(C(F)(F)F)CC4CC(=O)O)cc3)cc2C)c1 (single isomer, unassigned) [Example 22, Isomer 1, 2-(1-(4-((2′-fluoro-5′-methoxy-2-methylbiphenyl-4-yl)methyl)phenyl)-3-(trifluoromethyl)-4,5-dihydro-1H-pyrazol-5-yl)acetic acid] | 770 nM |
| COc1ccc(F)c(-c2ccc(Cc3ccc(N4N=C(c5cccc(Cl)c5)[C@@H](C)[C@@H]4CC(=O)O)cc3)c(C)c2)c1 (single isomer, unassigned) [Example 68, isomer 1] | 15 nM |
| O=C(O)CC1CC(C(F)(F)F)=NN1c1ccc(OCc2ccc(Cl)cc2Cl)cc1 (racemic) [Example 2, 2-(1-(4-(2,4-dichlorobenzyloxy)phenyl)-3-(trifluoromethyl)-4,5-dihydro-1H-pyrazol-5-yl)acetic acid] | 800 nM |
| COCC1C(C(F)(F)F)=NN(c2ccc(Cc3ccc(-c4cc(OC)ccc4F)cc3C)cc2)C1CC(=O)O (single isomer, unassigned) [Example 48, Isomer 2, 2-(1-(4-((2′-fluoro-5′-methoxy-3-methylbiphenyl-4-yl)methyl)phenyl)-4-(methoxymethyl)-3-(trifluoromethyl)-4,5-dihydro-1H-pyrazol-5-yl)acetic acid] | 920 nM |
| COc1ccc(F)c(-c2ccc(Cc3ccc(N4N=C(C(F)(F)F)C[C@@H]4CC(=O)O)cc3)c(Cl)c2)c1 (single isomer, unassigned) [Example 20, Isomer 2] | 50 nM |
| COCC1C(C(F)(F)F)=NN(c2ccc(Cc3ccc(-c4cc(OC)ccc4F)cc3C)cc2)C1CC(=O)O (single isomer, unassigned) [Example 48, Isomer 1, 2-(1-(4-((2′-fluoro-5′-methoxy-3-methylbiphenyl-4-yl)methyl)phenyl)-4-(methoxymethyl)-3-(trifluoromethyl)-4,5-dihydro-1H-pyrazol-5-yl)acetic acid] | 170 nM |
| COc1ccc(F)c(-c2ccc(Cc3ccc(N4N=C(C(F)(F)F)C(C)(C)C4CC(=O)O)cc3)c(C)c2)c1 (single isomer, unassigned) [Example 50, Isomer 2, 2-(1-(4-((2′-fluoro-5′-methoxy-3-methylbiphenyl-4-yl)methyl)phenyl)-4,4-dimethyl-3-(trifluoromethyl)-4,5-dihydro-1H-pyrazol-5-yl)acetic acid] | 1340 nM |
| COc1cc(-c2ccc(Cc3ccc(N4N=C(C(F)(F)F)[C@@H](C)[C@@H]4CC(=O)O)cc3)c(C)c2)ccn1 [Example 75, 2-((4S,5S)-1-(4-(4-(2-methoxypyridin-4-yl)-2-methylbenzyl)phenyl)-4-methyl-3-(trifluoromethyl)-4,5-dihydro-1H-pyrazol-5-yl)acetic acid] | 430 nM |
| COc1ccc(F)c(-c2ccc(Oc3ccc(N4N=C(C(F)(F)F)CC4CC(=O)O)cc3)cc2C)c1 (single isomer, unassigned) [Example 16, Isomer 1, 2-(1-(4-(2′-fluoro-5′-methoxy-2-methylbiphenyl-4-yloxy)phenyl)-3-(trifluoromethyl)-4,5-dihydro-1H-pyrazol-5-yl)acetic acid] | 670 nM |
| COc1ccc(F)c(-c2ccc(Cc3ccc(N4N=C(c5ccccn5)C(C)C4CC(=O)O)cc3)c(C)c2)c1 (single isomer, unassigned) [Example 62, isomer 1, 2-(1-(4-((2′-fluoro-5′-methoxy-3-methylbiphenyl-4-yl)methyl)phenyl)-4-methyl-3-(pyridin-2-yl)-4,5-dihydro-1H-pyrazol-5-yl)acetic acid] | 1600 nM |
| Cc1cc(Br)c(F)cc1Oc1ccc(N2N=C(C(F)(F)F)CC2CC(=O)O)cc1 (racemic) [Example 10, 2-(1-(4-(4-bromo-5-fluoro-2-methylphenoxy)phenyl)-3-(trifluoromethyl)-4,5-dihydro-1H-pyrazol-5-yl)acetic acid] | 230 nM |
| COc1ccc(F)c(-c2ccc(Cc3ccc(N4N=C(C(F)(F)F)C(CO)C4CC(=O)O)cc3)c(C)c2)c1 (single isomer, unassigned) [Example 53, Isomer 2, 2-(1-(4-((2′-fluoro-5′-methoxy-3-methyl-[1,1′-biphenyl]-4-yl)methyl)phenyl)-4-(hydroxymethyl)-3-(trifluoromethyl)-4,5-dihydro-1H-pyrazol-5-yl)acetic acid, trans-diastereomer] | 1100 nM |
| COc1cc(-c2ccc(Cc3ccc(N4N=C(C(F)(F)F)CC4CC(=O)O)cc3)c(C)c2)c(F)cn1 (single isomer, unassigned) [Example 27, Isomer 1, 2-(1-(4-(4-(5-fluoro-2-methoxypyridin-4-yl)-2-methylbenzyl)phenyl)-3-(trifluoromethyl)-4,5-dihydro-1H-pyrazol-5-yl)acetic acid] | 360 nM |
| COc1cccc(-c2ccc(Cc3ccc(N4N=C(C(F)(F)F)CC4CC(=O)O)cc3)c(C)c2)c1 (single isomer, unassigned) [Example 26, Isomer 2, 2-(1-(4-((3′-methoxy-3-methylbiphenyl-4-yl)methyl)phenyl)-3-(trifluoromethyl)-4,5-dihydro-1H-pyrazol-5-yl)acetic acid] | 120 nM |
| COc1cc(-c2ccc(Cc3ccc(N4N=C(C(F)(F)F)[C@@H](C)[C@@H]4CC(=O)O)cc3)c(C)c2)c(F)cn1 [Example 74, 2-((4S,5 S)-1-(4-(4-(5-fluoro-2-methoxypyridin-4-yl)-2-methylbenzyl)phenyl)-4-methyl-3-(trifluoromethyl)-4,5-dihydro-1H-pyrazol-5-yl)acetic acid] | 210 nM |
| COc1ccc(F)c(-c2cc(C)c(Cc3ccc(N4N=C(C(F)(F)F)CC4CC(=O)O)cc3)c(F)c2)c1 (single isomer, unassigned) [Example 21, Isomer 2, 2-(1-(4-((2′,3-difluoro-5′-methoxy-5-methylbiphenyl-4-yl)methyl)phenyl)-3-(trifluoromethyl)-4,5-dihydro-1H-pyrazol-5-yl)acetic acid] | 270 nM |
| COc1cc(-c2ccc(Oc3ccc(N4N=C(C(F)(F)F)CC4CC(=O)O)cc3)c(C)c2)c(F)cn1 (single isomer, unassigned) [Example 15, Isomer 2, 2-(1-(4-(4-(5-fluoro-2-methoxypyridin-4-yl)-2-methylphenoxy)phenyl)-3-(trifluoromethyl)-4,5-dihydro-1H-pyrazol-5-yl)acetic acid] | 530 nM |
| COc1ccc(F)c(-c2ccc(Cc3ccc(N4N=C(c5ccn(C)n5)C(C)C4CC(=O)O)cc3)c(C)c2)c1 (single isomer, unassigned) [Example 55, Isomer 1, 2-((1-(4-((2′-fluoro-5′-methoxy-3-methyl-[1,1′-biphenyl]-4-yl)methyl)phenyl)-1′,4-dimethyl-4,5-dihydro-1H,1′H-[3,3′-bipyrazol]-5-yl)acetic acid, trans-diastereomer] | 5630 nM |
| COc1ccc(F)c(-c2ccc(Cc3ccc(N4N=C(c5ccccc5)C(C)C4CC(=O)O)cc3)c(C)c2)c1 (single isomer, unassigned) [Example 59, Isomer 2, 2-(1-(4-((2′-fluoro-5′-methoxy-3-methyl-[1,1′-biphenyl]-4-yl)methyl)phenyl)-4-methyl-3-phenyl-4,5-dihydro-1H-pyrazol-5-yl)acetic acid] | 6 nM |
| COc1ccc(F)c(-c2ccc(Cc3ccc(N4N=C(c5ccc(F)cc5)[C@@H](C)[C@@H]4CC(=O)O)cc3)c(C)c2)c1 (single isomer, unassigned) [Example 67, isomer 2] | 800 nM |
